According to patent US9695155B2, “Herbicidal substituted pyrimidinyloxy benzene compounds” (E. I. DU PONT DE NEMOURS AND COMPANY, priority 2013, dated 2017):

Tests used:
velvetleaf = test: Test C preemergence; assay type: in vivo, Abutilon theophrasti; conditions: Abutilon theophrasti, pre-emergence
In short: (§1)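 Greenhouse herbicide screen. Pre: seeded loam/sand, sprayed at planting. Post: 1–4 leaf plants (2–18 cm) in peat-based mix. Formulation: solvent mixture + surfactant, non-phytotoxic. Readout: visual % control vs untreated, 13–15 d; dash = not tested.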

kochia [1] = test: Test A postemergence; assay type: in vivo, Kochia scoparia; conditions: 0 to 100 scale where 0 is no effect and 100 is complete control
In short: (§2)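 Compounds in non-phytotoxic solvent with surfactant applied as soil spray preemergence, or postemergence to plants 2-10 cm at one- to two-leaf stage, in loam/sand. After approximately 10 days in greenhouse, injury rated visually versus untreated controls, 0 (no effect) to 100 (complete control).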

soybean = test: Test C preemergence; assay type: in vivo, Glycine max; conditions: Glycine max, pre-emergence
In short: as §1

oilseed rape = test: Test C preemergence; assay type: in vivo, Brassica napus; conditions: Brassica napus, pre-emergence
In short: as §1

Italian ryegrass = test: Test C preemergence; assay type: in vivo, Lolium multiflorum; conditions: Lolium multiflorum, pre-emergence
In short: as §1

ragweed [2] = test: Test C preemergence; assay type: in vivo, Ambrosia elatior; conditions: Ambrosia artemisiifolia, pre-emergence
In short: as §1

blackgrass = test: Test C preemergence; assay type: in vivo, Alopecurus myosuroides; conditions: Alopecurus myosuroides, pre-emergence
In short: as §1

lambsquarters = test: Test C preemergence; assay type: in vivo, Chenopodium album; conditions: Chenopodium album, pre-emergence
In short: as §1

kochia [3] = test: Test A preemergence; assay type: in vivo, Kochia scoparia; conditions: 0 to 100 scale where 0 is no effect and 100 is complete control
In short: as §2

galium = test: Test C preemergence; assay type: in vivo, Galium aparine; conditions: Galium, pre-emergence
In short: as §1

corn = test: Test C preemergence; assay type: in vivo, Zea mays; conditions: Zea mays, pre-emergence
In short: as §1

ragweed [4] = test: Test A postemergence; assay type: in vivo, Ambrosia elatior; conditions: 0 to 100 scale where 0 is no effect and 100 is complete control
In short: as §2

johnsongrass = test: Test C preemergence; assay type: in vivo, Sorghum halepense; conditions: Sorghum halepense, pre-emergence
In short: as §1

giant foxtail = test: Test C preemergence; assay type: in vivo, Setaria faberii; conditions: Setaria faberi, pre-emergence
In short: as §1

wheat, winter = test: Test C preemergence; assay type: in vivo, Triticum aestivum; conditions: Triticum aestivum, pre-emergence
In short: as §1

barnyardgrass = test: Test C preemergence; assay type: in vivo, Echinochloa crus-galli; conditions: Echinochloa crus-galli, pre-emergence
In short: as §1

morningglory = test: Test C preemergence; assay type: in vivo, Ipomoea coccinea; conditions: Ipomoea, pre-emergence
In short: as §1

SMILES: N#Cc1cccc(Oc2ncc(Cl)cn2)c1-n1cc(SC(F)(F)F)cn1 [Compound 134, 3-[(5-chloro-2-pyrimidinyl)oxy]-2-[4-(trifluoromethylthio)-1-pyrazolyl]benzonitrile]
- pest or weed control at 16 g/ha (velvetleaf; 16 g ai/ha, preemergence, scale 0 to 100 (0 no effect, 100 complete control), read-out: Velvetleaf plant response rating): 30%
- pest or weed control at 62 g/ha (velvetleaf; 62 g ai/ha, preemergence, scale 0 (no effect) to 100 (complete control), read-out: Velvetleaf plant response rating): 85%
- pest or weed control at 125 g/ha (velvetleaf; 125 g ai/ha, preemergence, scale 0 (no effect) to 100 (complete control), read-out: Velvetleaf plant response rating): 100%
- pest or weed control at 31 g/ha (velvetleaf; Preemergence, 31 g ai/ha, scale 0 to 100, 0 no effect, 100 complete control, read-out: Plant response rating, Velvetleaf): 35%
- Kochia plant response rating (kochia [1]; 125 g ai/ha): 90
- Plant response rating, Kochia (kochia [1]; 500 g ai/ha): 100
- plant injury at 16 g/ha (soybean; 16 g ai/ha, preemergence, scale 0 to 100 (0 no effect, 100 complete control), read-out: Soybean plant response rating): 0%
- plant injury at 62 g/ha (soybean; 62 g ai/ha, preemergence, scale 0 (no effect) to 100 (complete control), read-out: Soybean plant response rating): 20%
- plant injury at 125 g/ha (soybean; 125 g ai/ha, preemergence, scale 0 (no effect) to 100 (complete control), read-out: Soybean plant response rating): 55%
- plant injury at 31 g/ha (soybean; Preemergence, 31 g ai/ha, scale 0 to 100, 0 no effect, 100 complete control, read-out: Plant response rating, Soybean): 15%
- plant injury at 16 g/ha (oilseed rape; 16 g ai/ha, preemergence, scale 0 to 100 (0 no effect, 100 complete control), read-out: Oilseed Rape plant response rating): 20%
- plant injury at 62 g/ha (oilseed rape; 62 g ai/ha, preemergence, scale 0 (no effect) to 100 (complete control), read-out: Oilseed Rape plant response rating): 100%
- plant injury at 125 g/ha (oilseed rape; 125 g ai/ha, preemergence, scale 0 (no effect) to 100 (complete control), read-out: Oilseed Rape plant response rating): 100%
- plant injury at 31 g/ha (oilseed rape; Preemergence, 31 g ai/ha, scale 0 to 100, 0 no effect, 100 complete control, read-out: Plant response rating, Oilseed Rape): 45%
- pest or weed control at 16 g/ha (Italian ryegrass; 16 g ai/ha, preemergence, scale 0 to 100 (0 no effect, 100 complete control), read-out: Ryegrass, Italian plant response rating): 0%
- pest or weed control at 62 g/ha (Italian ryegrass; 62 g ai/ha, preemergence, scale 0 (no effect) to 100 (complete control), read-out: Ryegrass, Italian plant response rating): 15%
- pest or weed control at 125 g/ha (Italian ryegrass; 125 g ai/ha, preemergence, scale 0 (no effect) to 100 (complete control), read-out: Ryegrass, Italian plant response rating): 70%
- pest or weed control at 31 g/ha (Italian ryegrass; Preemergence, 31 g ai/ha, scale 0 to 100, 0 no effect, 100 complete control, read-out: Plant response rating, Ryegrass, Italian): 5%
- pest or weed control at 16 g/ha (ragweed [2]; 16 g ai/ha, preemergence, scale 0 to 100 (0 no effect, 100 complete control), read-out: Ragweed plant response rating): 0%
- pest or weed control at 62 g/ha (ragweed [2]; 62 g ai/ha, preemergence, scale 0 (no effect) to 100 (complete control), read-out: Ragweed plant response rating): 55%
- pest or weed control at 125 g/ha (ragweed [2]; 125 g ai/ha, preemergence, scale 0 (no effect) to 100 (complete control), read-out: Ragweed plant response rating): 50%
- pest or weed control at 31 g/ha (ragweed [2]; Preemergence, 31 g ai/ha, scale 0 to 100, 0 no effect, 100 complete control, read-out: Plant response rating, Ragweed): 25%
- pest or weed control at 16 g/ha (blackgrass; 16 g ai/ha, preemergence, scale 0 to 100 (0 no effect, 100 complete control), read-out: Blackgrass plant response rating): 0%
- pest or weed control at 62 g/ha (blackgrass; 62 g ai/ha, preemergence, scale 0 (no effect) to 100 (complete control), read-out: Blackgrass plant response rating): 85%
- pest or weed control at 125 g/ha (blackgrass; 125 g ai/ha, preemergence, scale 0 (no effect) to 100 (complete control), read-out: Blackgrass plant response rating): 98%
- pest or weed control at 31 g/ha (blackgrass; Preemergence, 31 g ai/ha, scale 0 to 100, 0 no effect, 100 complete control, read-out: Plant response rating, Blackgrass): 45%
- pest or weed control at 16 g/ha (lambsquarters; 16 g ai/ha, preemergence, scale 0 to 100 (0 no effect, 100 complete control), read-out: Lambsquarters plant response rating): 60%
- pest or weed control at 62 g/ha (lambsquarters; 62 g ai/ha, preemergence, scale 0 (no effect) to 100 (complete control), read-out: Lambsquarters plant response rating): 100%
- pest or weed control at 125 g/ha (lambsquarters; 125 g ai/ha, preemergence, scale 0 (no effect) to 100 (complete control), read-out: Lambsquarters plant response rating): 100%
- pest or weed control at 31 g/ha (lambsquarters; Preemergence, 31 g ai/ha, scale 0 to 100, 0 no effect, 100 complete control, read-out: Plant response rating, Lambsquarters): 100%
- Plant response rating, Kochia (kochia [3]; 125 g ai/ha): 100
- Kochia plant response rating (kochia [3]; 500 g ai/ha): 100
- pest or weed control at 16 g/ha (galium; 16 g ai/ha, preemergence, scale 0 to 100 (0 no effect, 100 complete control), read-out: Galium plant response rating): 0%
- pest or weed control at 62 g/ha (galium; 62 g ai/ha, preemergence, scale 0 (no effect) to 100 (complete control), read-out: Galium plant response rating): 90%
- pest or weed control at 125 g/ha (galium; 125 g ai/ha, preemergence, scale 0 (no effect) to 100 (complete control), read-out: Galium plant response rating): 98%
- pest or weed control at 31 g/ha (galium; Preemergence, 31 g ai/ha, scale 0 to 100, 0 no effect, 100 complete control, read-out: Plant response rating, Galium): 0%
- plant injury at 16 g/ha (corn; 16 g ai/ha, preemergence, scale 0 to 100 (0 no effect, 100 complete control), read-out: Corn plant response rating): 0%
- plant injury at 62 g/ha (corn; 62 g ai/ha, preemergence, scale 0 (no effect) to 100 (complete control), read-out: Corn plant response rating): 40%
- plant injury at 125 g/ha (corn; 125 g ai/ha, preemergence, scale 0 (no effect) to 100 (complete control), read-out: Corn plant response rating): 40%
- Corn plant response rating (crop injury, 0 = no effect, 100 = complete kill) at 31 g/ha (corn; Preemergence, 31 g ai/ha, scale 0 to 100, 0 no effect, 100 complete control): 30%
- Ragweed plant response rating (ragweed [4]; 125 g ai/ha): 50
- Plant response rating, Ragweed (ragweed [4]; 500 g ai/ha): 60
- pest or weed control at 16 g/ha (johnsongrass; 16 g ai/ha, preemergence, scale 0 to 100 (0 no effect, 100 complete control), read-out: Johnsongrass plant response rating): 20%
- pest or weed control at 62 g/ha (johnsongrass; 62 g ai/ha, preemergence, scale 0 (no effect) to 100 (complete control), read-out: Johnsongrass plant response rating): 45%
- pest or weed control at 125 g/ha (johnsongrass; 125 g ai/ha, preemergence, scale 0 (no effect) to 100 (complete control), read-out: Johnsongrass plant response rating): 85%
- pest or weed control at 31 g/ha (johnsongrass; Preemergence, 31 g ai/ha, scale 0 to 100, 0 no effect, 100 complete control, read-out: Plant response rating, Johnsongrass): 25%
- pest or weed control at 16 g/ha (giant foxtail; 16 g ai/ha, preemergence, scale 0 to 100 (0 no effect, 100 complete control), read-out: Foxtail, Giant plant response rating): 10%
- pest or weed control at 62 g/ha (giant foxtail; 62 g ai/ha, preemergence, scale 0 (no effect) to 100 (complete control), read-out: Foxtail, Giant plant response rating): 100%
- pest or weed control at 125 g/ha (giant foxtail; 125 g ai/ha, preemergence, scale 0 (no effect) to 100 (complete control), read-out: Foxtail, Giant plant response rating): 100%
- pest or weed control at 31 g/ha (giant foxtail; Preemergence, 31 g ai/ha, scale 0 to 100, 0 no effect, 100 complete control, read-out: Plant response rating, Foxtail, Giant): 65%
- plant injury at 16 g/ha (wheat, winter; 16 g ai/ha, preemergence, scale 0 to 100 (0 no effect, 100 complete control), read-out: Wheat plant response rating): 0%
- plant injury at 62 g/ha (wheat, winter; 62 g ai/ha, preemergence, scale 0 (no effect) to 100 (complete control), read-out: Wheat plant response rating): 0%
- plant injury at 125 g/ha (wheat, winter; 125 g ai/ha, preemergence, scale 0 (no effect) to 100 (complete control), read-out: Wheat plant response rating): 15%
- plant injury at 31 g/ha (wheat, winter; Preemergence, 31 g ai/ha, scale 0 to 100, 0 no effect, 100 complete control, read-out: Plant response rating, Wheat): 0%
- pest or weed control at 16 g/ha (barnyardgrass; 16 g ai/ha, preemergence, scale 0 to 100 (0 no effect, 100 complete control), read-out: Barnyardgrass plant response rating): 0%
- pest or weed control at 62 g/ha (barnyardgrass; 62 g ai/ha, preemergence, scale 0 (no effect) to 100 (complete control), read-out: Barnyardgrass plant response rating): 60%
- pest or weed control at 125 g/ha (barnyardgrass; 125 g ai/ha, preemergence, scale 0 (no effect) to 100 (complete control), read-out: Barnyardgrass plant response rating): 85%
- pest or weed control at 31 g/ha (barnyardgrass; Preemergence, 31 g ai/ha, scale 0 to 100, 0 no effect, 100 complete control, read-out: Plant response rating, Barnyardgrass): 15%
- pest or weed control at 16 g/ha (morningglory; 16 g ai/ha, preemergence, scale 0 to 100 (0 no effect, 100 complete control), read-out: Morningglory plant response rating): 5%
- pest or weed control at 62 g/ha (morningglory; 62 g ai/ha, preemergence, scale 0 (no effect) to 100 (complete control), read-out: Morningglory plant response rating): 35%
- pest or weed control at 125 g/ha (morningglory; 125 g ai/ha, preemergence, scale 0 (no effect) to 100 (complete control), read-out: Morningglory plant response rating): 40%
- pest or weed control at 31 g/ha (morningglory; Preemergence, 31 g ai/ha, scale 0 to 100, 0 no effect, 100 complete control, read-out: Plant response rating, Morningglory): 20%
